Data taken from patent publication US20120322768A1, “COMPOUNDS, COMPOSITIONS AND METHODS FOR TREATING PROTOZOAN INFECTIONS” (QUEEN MARY & WESTFIELD COLLEGE, priority 2009, published 2012).
Like-named read-outs stand apart in the source and are kept apart here.

B1: T. brucei NTR (TbNTR) (Trypanosoma brucei brucei TREU927) (protein)
chain: DAFIRVVERRHSSKRFDSSRPVDHTLIARLLEATTRAPTAFNLQPWVAIVVHETSQRGALSHAALDQPQPREAPVTVVFAGDMEPEWRAPAALELGLNSGYYHPLYGAAYLRLVYYHLHGGPFGSMAKAKSCISSWYSNATGTPLLSVPTTMQGYAWKQAMIPATTFIYAATAAGLDTAILEGFDEAKVREVVGLPERYTVPVIISVGYKKADEQGKPPVRSPRFSTGSLVRWNRF

What was measured:
[1] = tested on: THP-1 cells; test: cells; conditions: Homo sapiens, THP-1, 144 h, read-out: IC50 THP1
[2] = tested on: bloodstream form T. brucei; test: microbe, parasite or virus in culture; type: cell-based; conditions: Trypanosoma brucei
[3] = tested on: intracellular form T. cruzi; test: microbe, parasite or virus in culture; type: cell-based; conditions: Trypanosoma cruzi, Vero, 72 h, read-out: IC50 T. cruzi
[4] = tested on: Vero cells; test: cells; type: cell-based; conditions: Chlorocebus sabaeus, read-out: IC50 Vero cells
[5] = tested on: insect form Leishmania major; test: microbe, parasite or virus in culture; type: cell-based; conditions: 144 h, read-out: IC50 L. major
[6] = Stability in phosphate buffer (HPLC); type: physicochemical; conditions: pH 7.4, 100 mM phosphate buffer, three-day incubation at 37° C., 100 μM
Experimental: (§1) Select nitrobenzyl phosphoramide mustards (100 μM) were incubated in pH 7.4 100 mM phosphate buffer or in whole human blood at 37° C. Aliquots were withdrawn at different time intervals and mixed with acetonitrile (1-1 for phosphate buffer and 1-5 for whole blood). The samples were centrifuged and analyzed by HPLC.

[7] = Stability in whole human blood (HPLC); type: in vitro ADME; conditions: three-day incubation at 37° C., 100 μM
Experimental: as §1

[8] = substrate: CC1CS(=O)(=O)CCN1/N=C/c1ccc([N+](=O)[O-])o1; test: TbNTR enzyme activity by NADH oxidation (absorbance at 340 nm); type: biochemical, T. brucei; conditions: other: apparent; NADH 100 μM, substrate 2-75 μM
Experimental: Enzyme activity was measured by following the change in absorbance at 340 nm due to NADH oxidation (34, 35). A reaction mixture (1 ml) containing 50 mM Tris-Cl pH 7.0, 100 μM NADH and NBPM (Tables 1 and 2) was incubated at room temperature for 5 min. The background rate of NADH oxidation was determined and the reaction initiated by the addition of 20 μg TbNTR. The enzyme activity was calculated using c of 6,220 M^−1 cm^−1. The absorbance spectrum (320-600 nm) for each NBPM was determined before.

[9] = 72 h, read-out: IC50 T. bruccei
[10] = read-out: IC50 against bloodstream form T. brucei

Molecule	IC50 [1]	IC50 [2, 9]	IC50 [3]	IC50 [4]	IC50 [5]	IC50 [2, 10]	also measured
NP(=O)(OCc1ccc([N+](=O)[O-])cc1)N(CCCl)CCCl (centres unmarked) [LH7]	66 ± 0.8 µM	3.4 ± 0.3 µM	–	–	–	–	–
NP(=O)(OCc1ccc([N+](=O)[O-])cc1F)N(CCCl)CCCl (centres unmarked) [LH32, 2-Fluoro-4-nitrobenzyl phosphoramide mustard]	20.3 ± 1.8 µM	0.268 ± 0.008 µM	9.54 ± 0.27 µM	> 100 µM	4.72 ± 0.23 µM	0.268 ± 0.008 µM	–
NP(=O)(OCc1ccc([N+](=O)[O-])cc1C(F)(F)F)N(CCCl)CCCl (centres unmarked) [LH33, 2-Trifluoromethyl-4-nitrobenzyl phosphoramide mustard]	19 ± 1.9 µM	0.149 ± 0.02 µM	7.97 ± 1.13 µM	> 100 µM	5.88 ± 0.28 µM	0.149 ± 0.02 µM	–
NP(=O)(OCc1ccc([N+](=O)[O-])cc1Cl)N(CCCl)CCCl (centres unmarked) [LH34, 2-Chloro-4-nitrobenzyl phosphoramide mustard]	10 ± 1.2 µM	0.008 ± 0.001 µM	9.14 ± 0.54 µM	> 100 µM	3.1 ± 0.28 µM	< 0.01 µM	Stability in phosphate buffer [6]: stable; change in peak area in whole human blood [7]: less than 30%
NP(=O)(OCc1c(F)cc([N+](=O)[O-])cc1F)N(CCCl)CCCl (centres unmarked) [LH37, 2,6-Difluoro-4-nitrobenzyl phosphoramide mustard]	6.9 µM	0.007 µM	0.99 ± 0.01 µM	> 100 µM	1.29 ± 0.08 µM	< 0.01 µM	Stability in phosphate buffer [6]: completely stable; Stability in human whole blood [7]: completely stable
CC1CS(=O)(=O)CCN1/N=C/c1ccc([N+](=O)[O-])o1 (centres unmarked) [Nifurtimox, reference compound]	64.8 ± 1.5 µM	–	–	–	–	–	–
Nc1nc(N)nc(Nc2ccc([As]3SCC(CO)S3)cc2)n1 (centres unmarked) [melarsoprol, reference compound]	–	–	–	–	–	–	IC50 ([2]; read-out: drug sensitivity (IC50)): ~4 µM
B1	–	–	–	–	–	–	Km [8]: 53.1 ± 15.2 µM; Vmax [8]: 0.423 µmol/min/mg; kcat/Km [8]: 3400 M⁻¹ s⁻¹
